Here are results for 3 compounds from patent publication US20100184094A1, “USE OF MDCK CELLS IN THE EVALUATION OF CHOLESTEROL MODULATORS” (priority 2007, published 2010).

One test has as its target T1, human NPC1L1 (Homo sapiens, UniProt Q9UHC9).
T1 construct: expressed in transfected cells
T1 sequence (Q9UHC9 22-1359): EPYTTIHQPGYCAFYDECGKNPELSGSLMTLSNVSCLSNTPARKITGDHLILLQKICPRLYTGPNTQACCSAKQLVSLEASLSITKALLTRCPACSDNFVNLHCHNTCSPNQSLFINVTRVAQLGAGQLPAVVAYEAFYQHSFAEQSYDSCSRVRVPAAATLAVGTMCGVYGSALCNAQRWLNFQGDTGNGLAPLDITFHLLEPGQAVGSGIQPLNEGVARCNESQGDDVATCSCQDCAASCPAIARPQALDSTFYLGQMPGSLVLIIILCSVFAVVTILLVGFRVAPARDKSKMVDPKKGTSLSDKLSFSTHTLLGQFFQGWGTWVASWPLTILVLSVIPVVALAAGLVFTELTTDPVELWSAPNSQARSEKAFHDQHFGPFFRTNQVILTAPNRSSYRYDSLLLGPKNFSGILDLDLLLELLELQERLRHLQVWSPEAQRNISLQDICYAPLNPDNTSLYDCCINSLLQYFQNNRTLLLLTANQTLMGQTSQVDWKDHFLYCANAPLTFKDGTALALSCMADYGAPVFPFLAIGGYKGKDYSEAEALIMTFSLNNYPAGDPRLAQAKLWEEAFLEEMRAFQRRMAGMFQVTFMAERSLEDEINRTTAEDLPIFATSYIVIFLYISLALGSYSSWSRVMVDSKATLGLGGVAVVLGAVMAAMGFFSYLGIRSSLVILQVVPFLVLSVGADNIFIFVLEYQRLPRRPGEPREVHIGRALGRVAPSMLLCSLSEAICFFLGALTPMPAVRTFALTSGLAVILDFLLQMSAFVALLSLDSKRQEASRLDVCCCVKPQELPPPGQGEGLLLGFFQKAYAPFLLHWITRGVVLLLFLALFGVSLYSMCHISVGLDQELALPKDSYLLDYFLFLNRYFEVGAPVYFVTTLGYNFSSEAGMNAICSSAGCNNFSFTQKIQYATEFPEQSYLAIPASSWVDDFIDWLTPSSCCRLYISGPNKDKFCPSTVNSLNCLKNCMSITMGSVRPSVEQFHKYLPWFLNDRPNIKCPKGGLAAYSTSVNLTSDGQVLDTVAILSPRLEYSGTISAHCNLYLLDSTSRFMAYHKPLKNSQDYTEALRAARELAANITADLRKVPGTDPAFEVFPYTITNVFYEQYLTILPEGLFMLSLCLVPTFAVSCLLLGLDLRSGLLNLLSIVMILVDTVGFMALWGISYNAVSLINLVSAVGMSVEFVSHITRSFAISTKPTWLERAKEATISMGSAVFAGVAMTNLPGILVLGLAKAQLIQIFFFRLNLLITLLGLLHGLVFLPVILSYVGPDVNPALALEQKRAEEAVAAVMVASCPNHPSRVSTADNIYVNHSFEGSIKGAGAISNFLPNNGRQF
The experiment in a line: [3H]cholesterol flux into hNPC1L1/MDCKII-Flp cells. Format: cell-based. The conditions noted are these: for IC50: hNPC1L1/MDCKII-Flp. On the procedure: (§1) Flux assays were performed essentially as described by Yu et al., 2006 J Biol. Chem. 281:6616-6624. Briefly, cell growth medium was completely aspirated and replaced with 200 μl of 5% LPDS containing the appropriate concentration of compound and incubated at 37° C./3 h in a 5% CO2 incubator. Media was subsequently aspirated from cells and cells were incubated in 200 μl of 0-5.5% βmCD dissolved and filtered through a […] filter at 37° C./45 minutes in a 5% CO2 incubator. Media was dumped from cells that were then washed twice with 125 μl of 5% LPDS before media was aspirated and [3H]cholesterol complexed to BSA in 5% LPDS was added; see Yu et al., 2006 J. Biol. Chem. 281:6616-6624. After 45 minute incubation, cells were washed twice with DMEM, thoroughly aspirated and then 1% SDS was added prior to extraction for scintillation counting.
To validate MDCKII cells as an appropriate surrogate system for monitoring NPC1L1-dependent processes, we evaluated their ability to perform EZE-sensitive cholesterol flux using a similar protocol to that recently reported. This assay makes use of the ability of βmCD to deplete membrane-bound cholesterol. Subsequent exposure of cells to [^3H] cholesterol provides a time-dependent flux of this substrate into the cells. […] In an attempt to improve the assay window, a stable MDCKII-Flp cell line over-expressing human NPC1L1, hNPC1L1/MDCKII-Flp, was generated.
To further characterize the [^3H] cholesterol influx process into MDCK cells, the potency of EZE-like compound PS for inhibiting [^3H] cholesterol uptake was determined.

The target in the next test is dog NPC1L1 (Canis lupus familiaris, UniProt A0A8I3RZG1). The experiment in a line: [3H]cholesterol flux into dNPC1L1/MDCKII-Flp cells. It counts as cell-based. On the procedure: as §1
Further evidence for the role of NPC1L1 expression levels on EZE-sensitive [^3H]cholesterol influx was obtained by analyzing the properties of MDCKII-Flp cells over-expressing dog NPC1L1 (dNPC1L1/MDCKII-Flp cells) in an inducible manner.
To further characterize the [^3H] cholesterol influx process into MDCK cells, the potency of EZE-like compound PS for inhibiting [^3H] cholesterol uptake was determined. […]

A further test has as its system MDCKII-Flp cells. The experiment in a line: [3H]cholesterol flux into MDCKII-Flp cells. Format: cell-based, dog. The conditions noted are these: 10 μM PS, 5.5% βmCD pre-treatment. On the procedure: as §1
To validate MDCKII cells as an appropriate surrogate system for monitoring NPC1L1-dependent processes, we evaluated their ability to perform EZE-sensitive cholesterol flux using a similar protocol to that recently reported. This assay makes use of the ability of βmCD to deplete membrane-bound cholesterol. Subsequent exposure of cells to [^3H] cholesterol provides a time-dependent flux of this substrate into the cells. […]

The mark [1] stands for this setting: FIG. 7D, read-out: IC50 block of [3H]cholesterol flux.

Like-named read-outs stand apart in the source and are kept apart here.

Chain of dog NPC1L1 (A0A8I3RZG1 entry or part of it): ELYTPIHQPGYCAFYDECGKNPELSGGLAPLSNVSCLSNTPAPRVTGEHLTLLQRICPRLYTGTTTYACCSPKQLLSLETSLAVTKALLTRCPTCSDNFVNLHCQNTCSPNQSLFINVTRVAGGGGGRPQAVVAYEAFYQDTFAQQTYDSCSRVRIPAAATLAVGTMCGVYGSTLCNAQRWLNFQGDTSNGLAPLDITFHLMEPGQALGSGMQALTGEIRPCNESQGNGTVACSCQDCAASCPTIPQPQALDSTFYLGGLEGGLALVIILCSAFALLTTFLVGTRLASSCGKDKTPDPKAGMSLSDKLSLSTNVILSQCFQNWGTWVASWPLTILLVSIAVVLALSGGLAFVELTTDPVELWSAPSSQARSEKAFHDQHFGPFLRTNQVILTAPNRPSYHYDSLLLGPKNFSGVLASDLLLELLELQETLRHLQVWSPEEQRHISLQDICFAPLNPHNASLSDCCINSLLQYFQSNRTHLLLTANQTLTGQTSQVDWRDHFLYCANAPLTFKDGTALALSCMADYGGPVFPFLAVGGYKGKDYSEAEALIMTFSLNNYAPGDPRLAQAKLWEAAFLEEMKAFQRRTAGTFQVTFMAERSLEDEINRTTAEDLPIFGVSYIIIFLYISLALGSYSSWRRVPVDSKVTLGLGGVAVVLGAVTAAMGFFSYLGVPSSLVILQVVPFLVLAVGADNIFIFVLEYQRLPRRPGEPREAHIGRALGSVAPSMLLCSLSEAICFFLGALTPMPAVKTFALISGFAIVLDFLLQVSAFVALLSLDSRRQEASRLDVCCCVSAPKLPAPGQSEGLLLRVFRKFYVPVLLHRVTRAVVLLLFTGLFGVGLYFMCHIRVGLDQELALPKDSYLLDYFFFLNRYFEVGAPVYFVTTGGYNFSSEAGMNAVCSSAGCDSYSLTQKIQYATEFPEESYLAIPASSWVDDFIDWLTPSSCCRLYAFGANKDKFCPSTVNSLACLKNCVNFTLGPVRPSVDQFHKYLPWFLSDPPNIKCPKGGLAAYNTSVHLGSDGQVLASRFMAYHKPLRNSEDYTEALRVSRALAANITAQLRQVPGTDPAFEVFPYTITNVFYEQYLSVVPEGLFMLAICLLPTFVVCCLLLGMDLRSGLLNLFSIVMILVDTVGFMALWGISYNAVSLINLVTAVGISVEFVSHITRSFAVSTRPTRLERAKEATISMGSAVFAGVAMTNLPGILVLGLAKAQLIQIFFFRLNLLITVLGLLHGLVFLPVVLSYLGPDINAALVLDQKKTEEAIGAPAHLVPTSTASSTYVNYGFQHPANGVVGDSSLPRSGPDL

The term IC50 denotes the point on the concentration scale where inhibition reaches its midpoint. Regarding `O=C1[C@H](CC[C@H](O)c2ccc(F)cc2)[C@@H](c2ccc(O)cc2)N1c1ccc(F)cc1` [EZE, Ezetimibe], the IC50 on human NPC1L1 (setting [1]) is greater than 1 µM.

As to `COC(=O)[C@H]1O[C@@H](Oc2ccc([C@@H]3[C@@H](CC[C@H](O)c4ccc(F)cc4)C(=O)N3c3ccc(C#CCNS(C)(=O)=O)cc3)cc2)[C@H](O)[C@@H](O)[C@@H]1O` [PS, 4-[(2S,3R)-3-[(3S)-3-(4-fluorophenyl)-3-hydroxypropyl]-1-(4-{3-[(methylsulfonyl)amino]prop-1-yn-1-yl}phenyl)-4-oxoazetidin-2-yl]phenyl methyl-β-D-glucopyranosiduronate], the “blockade of [3H]cholesterol influx” value at dog NPC1L1 (10 μM PS, 5.5% βmCD, after induction with 4 mM sodium butyrate) is reported as “almost completely blocked”; in the test on MDCKII-Flp cells, “marginally blocked”; at human NPC1L1 (10 μM PS, 5.5% βmCD treatment) it was “almost completely blocked”. The IC50 on dog NPC1L1 (dNPC1L1/MDCKII-Flp, FIG. 7C, read-out: IC50 inhibition of [3H]cholesterol uptake) was determined as 0.00032 ± 9e-05 µM; on human NPC1L1 (FIG. 7C, read-out: IC50 inhibition of [3H]cholesterol uptake), 0.0103 ± 0.0015 µM; at human NPC1L1 (setting [1]), 0.007 µM.

As for `O=C(O)[C@H]1O[C@@H](Oc2ccc([C@@H]3[C@@H](CC[C@H](O)c4ccc(F)cc4)C(=O)N3c3ccc(F)cc3)cc2)[C@H](O)[C@@H](O)[C@@H]1O` [EZE-gluc, ezetimibe glucuronide], at human NPC1L1 (setting [1]), the IC50 was determined as 0.3 µM.
